# From patent US20170129911A1, “COMPLEXES COMPRISING A PLATINUM COMPOUND AND AN IMMUNE CHECKPOINT INHIBITOR AND RELATED METHODS” (Massachusetts Institute of Technology, priority 2015, published 2017)
# How the values were obtained:
# human IDO in SKOV3 cells = assay: Immunoblotting and qRT-PCR of IDO expression in SKOV3 cells; format: cell-based
# Method: Total RNA was isolated with the Qiagen RNAeasy RNA isolation kit (Hilden, Germany) and cDNA was synthesized with the Applied Biosystems reverse-transcription-kit (Foster City, Calif., USA). qRT-PCR was performed in a Light cycler 480 II thermo cycler with SYBR Green PCR Mastermix (Roche). All primers were separated by at least one intron on the genomic DNA to exclude its amplification. PCR reactions were checked by including no-RT controls, by omission of templates, and by melting curves. Standard curves were generated for each gene. Relative quantification of gene expression was determined by comparison of threshold values. All samples were analyzed in duplicate at two different dilutions. All results were normalized to GAPDH.
# Cells were washed with PBS, scraped into SDS-PAGE loading buffer (64 mM Tris-HCl (pH 6.8)/9.6% glycerol/2% SDS/5% β-mercaptoethanol/0.01% Bromophenol Blue), and incubated at 95° C. for 10 min. […] Membranes were blocked in 5% (w/v) bovine serum albumin in PBST (PBS/0.1% Tween 20) and incubated with the appropriate primary antibodies (Cell Signalling Technology and Santa Cruz). After incubation with horseradish peroxidase-conjugated secondary antibodies (Cell Signalling Technology), 1:1000, immuno complexes were detected with the ECL detection reagent (BioRad) and analyzed using UVP biospectrum imaging system fitted with a chemiluminescence filter.
# [1] = Tolerability/toxicity in mice; format: in vivo
# [2] = Whole human blood stability test; format: in vitro ADME
# Method: To a volume of 0.8 mL fresh whole human blood (Innovative Research, Novi, Mich.) was added 24 μL of a DMSO solution of 2 (2.0 mM), resulting in a final concentration of 60 μM. After 5 sec of vortexing, a 100 μL aliquot of the blood sample (0 h time point) was immediately transferred to a new tube containing 300 μL of octanol, and the remaining […] of blood was incubated at 37° C. with rotation (1100 rpm). The blood-octanol mixture was vortexed for 2 min at R.T. and then centrifuged to separate the phases. The isolated octanol extract was diluted with methanol for GFAAS measurement. At varying time points (1 h, 2 h, 3 h, 5 h, and 7 h), a 100 μL aliquot was removed from the incubating blood and extracted as described above. For the 7 h sample, analytical HPLC was employed to confirm the integrity of the Pt compound. A standard of 2 and an octanol extract from blank whole human blood were used for comparison.
# [3] = tested on: A2780/CP70 human ovarian cancer cells; assay: Cytotoxicity MTT assay, A2780/CP70; format: cell-based; details: A2780/CP70, MTT, 72 h
# From the text: (§1) Ovarian carcinoma cells, NIH:OVCAR3, A2780, A2780/CP70, and SKOV3 were purchased from the American Type Culture Collection (ATCC, Rockville Md.). Peripheral blood mononuclear cells (PBMCs) of two different donors were obtained from Zen Bio Inc. (Research Triangle, NC). Cancer cell lines were maintained in Roswell Park Memorial Institute (RPMI) medium (glutamine-free supplemented with 10% fetal bovine serum, Atlanta Biologics, Atlanta Ga.) and 1% penicillin/streptomycin. PBMCs were thawed in specialized medium (10% […], 40% RPMI and 50% FBS) and subsequently cultured in RPMI containing 20% FBS. For T-cell proliferation experiments, PBMCs were stimulated by the addition of phytohemagglutinin (PHA-P). All cells were grown at 310 K in a humidified atmosphere containing 5% CO2. D-1-methyltryptophan, L-tryptophan and L-kynurenine were purchased from Sigma Aldrich.
# The colorimetric MTT assay was used to determine the toxicity of 1, 2, and cisplatin. Cells (2×10^3) were seeded in each well of a 96-well plate. […] Cisplatin was prepared as a 5 mM solution in PBS and diluted using media. 1, 2 and C16—Pt-Suc-NHC2H4OH were prepared as 10 mM solution in DMSO and diluted using media. The final volume amount of DMSO in each well was 0.5%, and which was present in the untreated control as well. Cells co-incubated with cisplatin and (D)-1-MT were first pre-treated with 1 mM (D)-1-MT. […] The RPMI/MTT, mixture was aspirated and 100 μL of DMSO was added to dissolve the resulting purple formazan crystals. The absorbance of the solution wells was read at 570 and 650 nm. Absorbance values were normalized to DMSO-containing control wells and plotted as concentration of test compound versus % cell viability. IC50 values were interpolated from the resulting dose dependent curves. The reported IC50 values are the average of at least three independent experiments, each of which consisted of six replicates per concentration level.
# [4] = tested on: NIH:OVCAR3 human ovarian cancer cells; assay: Cytotoxicity MTT assay, NIH:OVCAR3; format: cell-based
# From the text: as §1
# (§2) The colorimetric MTT assay was used to determine the toxicity of 1, 2, and cisplatin. Cells (2×10^3) were seeded in each well of a 96-well plate. […] Cisplatin was prepared as a 5 mM solution in PBS and diluted using media. 1, 2 and C16—Pt-Suc-NHC2H4OH were prepared as 10 mM solution in DMSO and diluted using media. […] The absorbance of the solution wells was read at 570 and 650 nm. Absorbance values were normalized to DMSO-containing control wells and plotted as concentration of test compound versus % cell viability. […]
# [5] = tested on: A2780 human ovarian cancer cells; assay: Cytotoxicity MTT assay, A2780; format: cell-based; details: 72 h
# From the text: as §1, §2
# [6] = Water-octanol partition coefficient (Log P), shake-flask method and GFAAS; details: octanol/PBS
# [7] = tested on: SKOV3 human ovarian cancer cells; assay: Cytotoxicity MTT assay, SKOV3; format: cell-based
# From the text: as §1, §2
# [8] = tested on: HCT 116 P53−/− colorectal cell line; assay: MTT anticancer activity, HCT116 p53 −/−; format: cell-based; details: 48 h
# Method: (§3) An MTT assay was run to measure the compounds anti cancer activity. The two colorectal cell lines HCT 116 P53+/+ and HCT 116 P53−/− were plated on 96 well plates. After adhesion to the plate, each individual compound was added to three rows, each consisting of 8 wells with a 3 fold dilution in concentration per well beginning at 25 μM. After 48 hours of incubation, the MTT reagent was added to the plates, which were then incubated for another 4 hours. The well contents were then dissolved in 200 μL of DMSO, and the plates were read for UV absorption at 570 nm and 650 nm. The collected data was then analyzed to produce the sigmoidal curves, which were then used to interpolate the IC50 values of each compounds. (See Table 3).
# [9] = tested on: HCT 116 P53+/+ colorectal cell line; assay: MTT anticancer activity, HCT116 p53 +/+; format: cell-based; details: 48 h
# Method: as §3
# SKOV3 cells = assay: Cell cycle analysis by flow cytometry (DNA content)
# [10] = reported values used for comparison with human blood stability; cited from earlier work
# genomic DNA = assay: DNA platination experiments; format: cell-based, human; details: SKOV3, 10 μM, 17 h
# Method: To gain further insight into the mode of action was studied of 1 and 2, the subcellular distribution of platinum. SKOV3 cells were incubated with the drug candidates (5 μM) for 17 h, using cisplatin as a control. The platinum content was measured by using GFAAS.
# These cells were then treated with the compounds (10 μM) in fresh medium (9 mL) and subsequently incubated for 17 h at 37° C. The medium was aspirated and the cells were washed with PBS (3×8 mL), harvested by trypsinization (1 mL), and washed with 2 mL of PBS. The cell suspension was centrifuged at 2000 rpm for 5 min at 4° C. The cell pellet was suspended in DNAzol (1 mL, genomic DNA isolation reagent,). The DNA was precipitated with pure ethanol (0.5 mL), washed with 75% ethanol (0.75 mL×3), and re-dissolved in 500 μL of 8 mM NaOH. The DNA concentration was determined by UV-Vis spectroscopy and the platinum content was quantified by GFAAS. All experiments were carried out in triplicate.
compound,measurement,setting,value
"CCCCCCCCCCCCCCCCNC(=O)[O][Pt]([NH2])([NH2])([Cl])([Cl])[O]C(=O)CCC(=O)O [C16—Pt-Suc, reference compound]",IDO protein expression (IDO inhibition),human IDO in SKOV3 cells; immunoblotting and qRT-PCR,did not show IDO inhibition
"Cn1cc(C[C@@H](N)C(=O)[O][Pt]([NH2])([NH2])([Cl])([Cl])[O]C(=O)[C@H](N)Cc2cn(C)c3ccccc23)c2ccccc21 (mixture of isomers) [Compound 1, cis,cis,trans-[Pt(NH3)2Cl2(O2C-D-1-MT)2]]",toxicity / tolerance in mice,[1],low toxicity in mice
same,logP at 3 h,physchem,-0.21 ± 0.08
same,stability in blood,[2],stable in blood
same,concentration at which IDO protein expression is blocked,human IDO in SKOV3 cells; immunoblotting,100 µM
"Cn1cc(C[C@@H](N)C(=O)O)c2ccccc21 [(D)-1-MT, D-1-methyltryptophan]",IC50,[3]; Homo sapiens,1040 ± 63.9 µM
same,IC50,"[4]; Homo sapiens, OVCAR-3, 72 h",1200 ± 80 µM
same,IC50,[5]; Homo sapiens,833 ± 7.53 µM
same,logP at 3 h,[6],-2.98 ± 0.15
same,IC50,"[7]; Homo sapiens, SK-OV-3, 72 h",1918 ± 8.4 µM
O=C(O)C(=O)O.[NH-][C@@H]1CCCC[C@H]1[NH-].[Pt+2] [Oxaliplatin],IC50,[8],6.55 ± 1.78 µM
same,IC50,[9],1.32 ± 1.48 µM
[cis-Pt(NH3)2Cl2] [Cisplatin],IC50,[3],10.4 ± 0.6 µM
same,cell cycle arrest phase,SKOV3 cells,G2/M arrest
same,IC50,[4]; 72 h,4.1 ± 0.2 µM
same,t1/2 (reported),[10],21.6 min
same,DNA platination,genomic DNA,409±54 Pt adducts/10^4 nucleotides
same,IC50,[5],0.7 ± 0.2 µM
same,IC50,[7]; 72 h,3.7 ± 0.28 µM
CC(=O)[O][Pt]([NH2])([Cl])([Cl])([NH]C1CCCCC1)[O]C(C)=O [satraplatin],t1/2 (reported),[10],6 min
